Reference: US20240415819A1, “MACROCYCLIC COMPOUNDS AS PROTEASOME SUBUNIT BETA TYPE-5 INHIBITORS” (Lead Discovery Center GmbH, priority 2021, published 2024)

Columns and labels:
[1] = target: T1, β5 subunit of the human constitutive proteasome (CPS) (Homo sapiens, UniProt P28074); assay: β5 inhibition assay, human constitutive proteasome (Suc-LLVY-AMC); format: biochemical; conditions: IC50 class, Suc-LLVY-AMC substrate
T1 construct: purchased Boston Biochem E-360
Method: The enzymatic activity of the β5 subunit of the human constitutive proteasome (CPS) is analyzed. In another assay, which differs from the assay of the human constitutive proteasome only in using the human immunoproteasome (IPS) the enzymatic activity of the β5 subunit of the human immunoproteasome (IPS) is analyzed. […] Inhibition is indicated as IC50 [nM] (“-”=not measured).

[2] = target: T2, β5 subunit of the human immunoproteasome (IPS) (Homo sapiens, UniProt P28062); assay: β5 inhibition assay, human immunoproteasome (Suc-LLVY-AMC); format: biochemical; conditions: IC50 class, Suc-LLVY-AMC substrate
T2 construct: purchased Boston Biochem E-370
Method in brief: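 β5 activity is read as liberated AMC fluorescence (355/460 nm) after 4 h dark reaction at RT with 22.6 μM Suc-LLVY-AMC, stopped by 1 μM bortezomib. Beforehand, 1 nM human IPS and compound sat 10 min at RT in HEPES pH 7.5 buffer containing NaCl, 0.02% SDS and DTT.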

[3] = test system: A549 (human lung carcinoma cell line); assay: Glo assay of A549 cells (Table 3; ProteasomeGlo plating scheme); format: cell-based; conditions: Homo sapiens; A549 cells; read-out: PGLo A549
Method in brief: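 Compound treatment lasts 105 minutes at 37° C. under 5% CO2. Suc-LLVY-Glo substrate premixed with detection reagent (60 min at room temperature) is then added directly to the cells, and luminescence after 10-15 min in the dark gives the IC50 in nM.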

[4] = test system: Hs 746T (human gastric carcinoma cell line); assay: 48 hr CTG viability assay, Hs 746T; format: cell-based; conditions: Hs746T, 48 hr CTG, read-out: Hs 746T IC50
Method in brief: (§1)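 Growth inhibition by compound over 48 h; IC50 (nM) derived from duplicate CellTiter-Glo luminescence readings across 0.0015–10 uM.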

[5] = test system: MM1 S (B lymphoblast cell line); assay: 48 hr CTG viability assay, MM1S; format: cell-based; conditions: Homo sapiens, 48 hr CTG, read-out: MM1S IC50
Method in brief: as §1

[6] = test system: RPMI 8226 (B lymphocyte cell line, multiple myeloma); assay: 48 hr CTG viability assay, RPMI 8226; format: cell-based; conditions: Homo sapiens, RPMI-8226; 48 hr CTG; read-out: RPMI-8226 IC50
Method in brief: as §1

IC50 [1] [nM] | IC50 [2] [nM] | IC50 [3] [nM] | IC50 [4] [nM] | IC50 [5] [nM] | IC50 [6] [nM] | Compound
< 100 | < 100 | < 100 | < 100 | < 100 | < 100 | Cc1ccc2cc1CNC(=O)[C@H](CCc1ccccc1)NC(=O)[C@@H](NC(=O)CN1CCC1)CC(=O)N1CCCC(CCO2)C1 (stereo partly drawn) [Compound 663, 2-(azetidin-1-yl)-N-((9S,12S)-5^4-methyl-8,11,14-trioxo-9-phenethyl-4-oxa-7,10-diaza-1(3,1)-piperidina-5(1,3)-benzenacyclotetradecaphane-12-yl)acetamide]
< 100 | < 100 | < 100 | < 100 | < 100 | < 100 | Cc1ccc2cc1CNC(=O)[C@H](CCc1ccccc1)NC(=O)[C@@H](NC(=O)CCNCc1ccc(N3CCN(Cc4ccccc4)CC3)cc1)CC(=O)N1CCCC(CCO2)C1 (stereo partly drawn) [Compound 699, 3-((4-(4-benzylpiperazin-1-yl)benzyl)amino)-N-((9S,12S)-5^4-methyl-8,11,14-trioxo-9-phenethyl-4-oxa-7,10-diaza-1(3,1)-piperidina-5(1,3)-benzenacyclotetradecaphane-12-yl)propanamide]
< 100 | < 100 | < 100 | < 100 | < 100 | < 100 | Cc1ccc2cc1CNC(=O)[C@H](CCc1ccccc1)NC(=O)[C@@H](NC(=O)CCN1CCC3(CCOCC3)CC1)CC(=O)N1CCCC(CCO2)C1 (stereo partly drawn) [Compound 611, N-((9S,12S)-5^4-methyl-8,11,14-trioxo-9-phenethyl-4-oxa-7,10-diaza-1(3,1)-piperidina-5(1,3)-benzenacyclotetradecaphane-12-yl)-3-(3-oxa-9-azaspiro[5.5]undecan-9-yl)propanamide]
< 100 | < 100 | < 100 | < 100 | < 100 | < 100 | Cc1ccc2cc1CNC(=O)[C@H](CCc1ccccc1)NC(=O)[C@@H](NC(=O)CCNCCC1CC1)CC(=O)N1CCCC(CCO2)C1 (stereo partly drawn) [Compound 679, 3-((2-cyclopropylethyl)amino)-N-((9S,12S)-5^4-methyl-8,11,14-trioxo-9-phenethyl-4-oxa-7,10-diaza-1(3,1)-piperidina-5(1,3)-benzenacyclotetradecaphane-12-yl)propanamide]
< 100 | < 100 | < 100 | < 100 | < 100 | < 100 | Cc1ccc2cc1CNC(=O)[C@H](CCc1ccccc1)NC(=O)[C@@H](NC(=O)CCOCCC1CC1)CC(=O)N1CCCC(CCO2)C1 (stereo partly drawn) [Compound 630, 3-(2-cyclopropylethoxy)-N-((9S,12S)-5^4-methyl-8,11,14-trioxo-9-phenethyl-4-oxa-7,10-diaza-1(3,1)-piperidina-5(1,3)-benzenacyclotetradecaphane-12-yl)propanamide]
< 100 | < 100 | < 100 | < 100 | < 100 | < 100 | Cc1ccc2cc1CNC(=O)[C@H](CCc1ccccc1)NC(=O)[C@@H](NC(=O)CCOCCC1CCCC1)CC(=O)N1CCCC(CCO2)C1 (stereo partly drawn) [Compound 623, 3-(2-cyclopentylethoxy)-N-((9S,12S)-5^4-methyl-8,11,14-trioxo-9-phenethyl-4-oxa-7,10-diaza-1(3,1)-piperidina-5(1,3)-benzenacyclotetradecaphane-12-yl)propanamide]
< 100 | < 100 | < 100 | < 100 | < 100 | < 100 | Cc1ccc2cc1CNC(=O)[C@H](CCc1ccccc1)NC(=O)[C@@H](NC(=O)CCN[C@@H]1C[C@H]3CC[C@@H]1C3)CC(=O)N1CCCC(CCO2)C1 [Compound 695, 3-(((1R,2R,4S)-bicyclo[2.2.1]heptan-2-yl)amino)-N-((9S,12S)-5^4-methyl-8,11,14-trioxo-9-phenethyl-4-oxa-7,10-diaza-1(3,1)-piperidina-5(1,3)-benzenacyclotetradecaphane-12-yl)propanamide]
< 100 | < 100 | < 100 | < 100 | < 100 | < 100 | Cc1ccc2cc1CNC(=O)[C@H](CCc1ccccc1)NC(=O)[C@@H](NC(=O)CCNC(=O)c1ccc(N3CCOCC3)cc1)CC(=O)N1CCCC(CCO2)C1 (stereo partly drawn) [Compound 604, N-(3-(((9S,12S)-5^4-methyl-8,11,14-trioxo-9-phenethyl-4-oxa-7,10-diaza-1(3,1)-piperidina-5(1,3)-benzenacyclotetradecaphane-12-yl)amino)-3-oxopropyl)-4-morpholinobenzamide]
100 to 500 | 100 to 500 | 500 to 1000 | 1000 to 5000 | 100 to 500 | 100 to 500 | Cc1ccc2cc1CNC(=O)[C@H](CCc1ccccc1)NC(=O)[C@@H](N1CCCC1=O)CC(=O)N1CCCC(CCO2)C1 (stereo partly drawn) [Compound 728, (9S,12S)-5^4-methyl-12-(2-oxopyrrolidin-1-yl)-9-phenethyl-4-oxa-7,10-diaza-1(3,1)-piperidina-5(1,3)-benzenacyclotetradecaphane-8,11,14-trione]
< 100 | < 100 | < 100 | < 100 | < 100 | < 100 | Cc1ccc2cc1CNC(=O)[C@H](CCc1ccccc1)NC(=O)[C@@H](NC(=O)C(F)(F)CN)CC(=O)N1CCCC(CCO2)C1 (stereo partly drawn) [Compound 598, 3-amino-2,2-difluoro-N-((9S,12S)-5^4-methyl-8,11,14-trioxo-9-phenethyl-4-oxa-7,10-diaza-1(3,1)-piperidina-5(1,3)-benzenacyclotetradecaphane-12-yl)propanamide]
< 100 | < 100 | < 100 | < 100 | < 100 | < 100 | COc1ccc(CCOCCC(=O)N[C@H]2CC(=O)N3CCCC(CCOc4ccc(C)c(c4)CNC(=O)[C@H](CCc4ccccc4)NC2=O)C3)cc1 (stereo partly drawn) [Compound 610, 3-(4-methoxyphenethoxy)-N-((9S,12S)-5^4-methyl-8,11,14-trioxo-9-phenethyl-4-oxa-7,10-diaza-1(3,1)-piperidina-5(1,3)-benzenacyclotetradecaphane-12-yl)propanamide]
< 100 | < 100 | < 100 | < 100 | < 100 | < 100 | Cc1ccc2cc1CNC(=O)[C@H](CCc1ccccc1)NC(=O)[C@@H](NC(=O)C13CC(N)(C1)C3)CC(=O)N1CCCC(CCO2)C1 (stereo partly drawn) [Compound 662, 3-amino-N-((9S,12S)-5^4-methyl-8,11,14-trioxo-9-phenethyl-4-oxa-7,10-diaza-1(3,1)-piperidina-5(1,3)-benzenacyclotetradecaphane-12-yl)bicyclo[1.1.1]pentane-1-carboxamide]
< 100 | < 100 | < 100 | < 100 | < 100 | < 100 | Cc1ccc2cc1CNC(=O)[C@H](CCc1ccccc1)NC(=O)[C@@H](NC(=O)CCOCC1CC3CCC1C3)CC(=O)N1CCCC(CCO2)C1 (stereo partly drawn) [Compound 614, 3-(bicyclo[2.2.1]heptan-2-ylmethoxy)-N-((9S,12S)-5^4-methyl-8,11,14-trioxo-9-phenethyl-4-oxa-7,10-diaza-1(3,1)-piperidina-5(1,3)-benzenacyclotetradecaphane-12-yl)propanamide]
< 100 | < 100 | < 100 | < 100 | < 100 | < 100 | Cc1ccc2cc1CNC(=O)[C@H](CCc1ccccc1)NC(=O)[C@@H](NC(=O)NC1CCCCC1)CC(=O)N1CCCC(CCO2)C1 (stereo partly drawn) [Compound 593, 1-cyclohexyl-3-((9S,12S)-5^4-methyl-8,11,14-trioxo-9-phenethyl-4-oxa-7,10-diaza-1(3,1)-piperidina-5(1,3)-benzenacyclotetradecaphane-12-yl)urea]
< 100 | < 100 | < 100 | < 100 | < 100 | < 100 | Cc1ccc2cc1CNC(=O)[C@H](CCc1ccccc1)NC(=O)[C@@H](NC(=O)CCOCC1CC3(CCC3)C1)CC(=O)N1CCCC(CCO2)C1 (stereo partly drawn) [Compound 615, N-((9S,12S)-5^4-methyl-8,11,14-trioxo-9-phenethyl-4-oxa-7,10-diaza-1(3,1)-piperidina-5(1,3)-benzenacyclotetradecaphane-12-yl)-3-(spiro[3.3]heptan-2-ylmethoxy)propanamide]
